Laboratory results from patent US20050244490A1, “Dosing methods for beta-D-2',3'-dideoxy-2',3'-didehydro-5-fluorocytidine antiviral therapy” (priority 2003, published 2005).
Like-named read-outs stand apart in the source and are kept apart here. One block for each compound: values may come before it.

Tests used:
[1] = human, in vivo
clinical [2] = conditions: in vivo
HepG2 cells = test: Mitochondrial toxicity testing (mitDNA, rRNA, lactic acid); assay type: cell-based; conditions: 14 days; for % Change in Lactic Acid: normalized for cytotoxicity
Description: HepG2 cells were incubated for 14 days with the active agent. and mitDNA and rRNA levels were determined by quantitative real-time PCR. The results are tabulated in […]

[3] = test system: AZT/3TC-resistant HIV-1 recombinant viruses; test: microbe, parasite or virus in culture; assay type: cell-based; conditions: Human immunodeficiency virus 1, read-out: Average IC90 for AZT/3TC-R virus
Description: A panel of 22 viruses was constructed in the HXB2 background using the Protease and RT sequences from clinical isolates to determine Virco Profiling against recombinant clinical isolates (see FIGS. 7a and 7b). Viruses contained 2 to 17 mutations in RT frequently associated with nucleoside resistance, including: M184V, M41L, D67N, T215Y. IC50 values were determined using a high through-put reporter virus assay.

HIV RT = molecular target: T1, HIV RT (Human immunodeficiency virus type 1 group M subtype B, UniProt P04585); test: Inhibition of purified HIV-1 reverse transcriptase by nucleoside triphosphates (tritiated dCTP incorporation); assay type: biochemical; conditions: pure polymerase, tritiated dCTP incorporation; read-out: IC50
T1 construct: purified HIV-1 reverse transcriptase (RT)
Description: An assay was performed to determine the ability of β-D-D4FC-triphosphate to terminate polymerization catalyzed by purified HIV-1 reverse transcriptase (RT). […] The target concentration is that concentration where most mutant variants tested are suppressed by 90% or more. The concentration of 5 μM is the target plasma concentration as most, mutant variants tested were suppressed ≧90% in vitro.
(§1) Triphosphates of nucleosides were tested against pure polymerases using tritiated dCTP incorporation.

DNA Pol β = DNA Pol β (Homo sapiens, UniProt P06746); test: Inhibition of pure DNA polymerase β by nucleoside triphosphates; assay type: biochemical; conditions: tritiated dCTP incorporation
Description: as §1

DNA Pol γ = molecular target: T2, DNA Pol γ (Homo sapiens, UniProt P54098); test: Inhibition of pure DNA polymerase γ by nucleoside triphosphates; assay type: biochemical; conditions: tritiated dCTP incorporation
T2 sequence (P54098 1-1239): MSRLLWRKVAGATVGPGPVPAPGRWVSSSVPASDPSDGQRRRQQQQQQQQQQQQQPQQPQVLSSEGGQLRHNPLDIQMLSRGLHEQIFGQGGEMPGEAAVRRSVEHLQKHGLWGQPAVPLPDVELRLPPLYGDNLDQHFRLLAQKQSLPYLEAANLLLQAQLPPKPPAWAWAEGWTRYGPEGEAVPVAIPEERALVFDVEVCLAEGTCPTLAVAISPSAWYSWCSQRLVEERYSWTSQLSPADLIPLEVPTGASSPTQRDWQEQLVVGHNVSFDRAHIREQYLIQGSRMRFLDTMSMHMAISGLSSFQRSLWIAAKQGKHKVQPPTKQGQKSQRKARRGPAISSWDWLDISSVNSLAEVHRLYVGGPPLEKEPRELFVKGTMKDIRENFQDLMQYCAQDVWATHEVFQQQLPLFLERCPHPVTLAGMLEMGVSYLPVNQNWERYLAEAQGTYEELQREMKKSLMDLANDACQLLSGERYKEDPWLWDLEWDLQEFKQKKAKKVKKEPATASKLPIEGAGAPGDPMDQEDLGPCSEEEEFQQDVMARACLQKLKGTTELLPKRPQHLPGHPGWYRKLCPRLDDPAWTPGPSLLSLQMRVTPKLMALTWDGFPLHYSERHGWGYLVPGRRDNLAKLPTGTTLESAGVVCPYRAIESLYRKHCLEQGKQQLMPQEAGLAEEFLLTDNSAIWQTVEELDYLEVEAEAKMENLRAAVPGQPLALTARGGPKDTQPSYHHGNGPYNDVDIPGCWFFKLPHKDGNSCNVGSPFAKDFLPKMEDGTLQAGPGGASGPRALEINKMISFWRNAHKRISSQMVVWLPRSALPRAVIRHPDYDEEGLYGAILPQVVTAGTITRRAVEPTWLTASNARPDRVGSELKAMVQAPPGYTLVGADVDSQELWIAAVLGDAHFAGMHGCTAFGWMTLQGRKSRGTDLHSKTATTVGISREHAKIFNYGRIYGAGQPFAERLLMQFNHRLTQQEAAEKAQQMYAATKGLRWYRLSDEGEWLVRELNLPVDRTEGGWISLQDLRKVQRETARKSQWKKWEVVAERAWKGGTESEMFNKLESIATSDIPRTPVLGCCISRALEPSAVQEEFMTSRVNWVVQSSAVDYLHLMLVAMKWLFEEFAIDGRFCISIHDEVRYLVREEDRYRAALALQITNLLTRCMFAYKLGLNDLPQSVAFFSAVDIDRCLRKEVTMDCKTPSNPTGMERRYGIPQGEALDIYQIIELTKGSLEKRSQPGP
Description: as §1

wild type HIV-RT = molecular target: T3, wild type HIV-RT (Human immunodeficiency virus type 1 group M subtype B, UniProt P04585); test: Ki / Km for wild type HIV-RT; assay type: biochemical, HIV-1
T3 construct: The Ki value for β-D-D4FC-TP for wild type HIV-RT

M184V mutant RT = M184V mutant RT (Human immunodeficiency virus type 1 group M subtype B, UniProt P04585, M771V); test: biochemical; assay type: biochemical, HIV-1
clinical [4] = conditions: male, human, in vivo
Description: Total of 18 HIV-1 infected males, aged 18-55 years, enrolled, 6 per treatment cohort.
In Cohort 3, subjects received either 100 mg, or 200 mg, or placebo.
The data was analyzed using non-compartmental and two-compartmental models.
HIV RNA levels were also determined using quantitative real-time RT-PCR.
Plasma HIV-1 RNA levels were measured by quantitative reverse transcriptase-polymerase chain reaction (Q-RT-PCR) essentially as described by Stuyver, L. J. et al., “Antiviral activity and cellular toxicity of modified 2′,3′-dideoxy-2′,3′-didehydrocytidine analogues” Antimicrob Agents Chemother.

HIV viral load = conditions: cited from earlier work
[5] = test system: acutely HIV-1 infected human PBM cells; test: Median effect / combination index study with Racivir; assay type: cell-based; conditions: Human immunodeficiency virus 1, PBMC, 120 h
[6] = pbmc

Compound: Nc1ccn([C@@H]2CS[C@H](CO)O2)c(=O)n1 [3TC, β-L-2′,3′-dideoxy-3′-thiacytidine]
- Intracellular [Nuc-PPP] in patients [1]: 6 to 10 µM
- Cmax (clinical [2]): 6.6 µM
- % Change in mitDNA (HepG2 cells; 1 μM): 0%
- % Change in rRNA (HepG2 cells; 1 μM): −0.3%
- % Change in Lactic Acid (HepG2 cells; 1 μM): +23%
- % Change in mitDNA (HepG2 cells; 10 μM): −9%
- % Change in rRNA (HepG2 cells; 10 μM): −0%
- % Change in Lactic Acid (HepG2 cells; 10 μM): +5%
- IC90 [3]: > 93 µM

Compound: Nc1ccn([C@@H]2CS[C@H](COP(=O)(O)OP(=O)(O)OP(=O)(O)O)O2)c(=O)n1 [3TC-TP]
- IC50 (HIV RT): 570 nM
- IC50 (DNA Pol β): 10.3 µM
- IC50 (DNA Pol γ): 43.1 µM
- Ki (wild type HIV-RT; read-out: Ki WT): 950 nM
- Ki (M184V mutant RT; read-out: Ki M184V): 85 µM

- AUC (clinical [4]; 10 mg): 0.39 ± 0.26 µM·h
- AUC(0-τ) (clinical [4]; 10 mg): 136 ± 14 ng·h/mL
- AUC(0-∞) (clinical [4]; 10 mg): 149 ng·h/mL
- CLr (clinical [4]; 10 mg): 1.39 L/h
- CLtot/F (clinical [4]; 10 mg): 67 957 mL/h
- T ½ (clinical [4]; 10 mg): 6.4 ± 4.2 h
- Tmax (clinical [4]; 10 mg): 1.0 ± 0.3 h
- t1/2 λz (clinical [4]; 10 mg): 2.41 h
- tmax (clinical [4]; 10 mg): 1.08 h
- AUC (clinical [4]; 25 mg): 1.52 ± 0.87 µM·h
- AUC(0-τ) (clinical [4]; 25 mg): 234 ng·h/mL
- AUC(0-∞) (clinical [4]; 25 mg): 250 ng·h/mL
- CLr (clinical [4]; 25 mg): 1.27 L/h
- CLtot/F (clinical [4]; 25 mg): 115 262 mL/h
- T ½ (clinical [4]; 25 mg): 9.5 ± 5.2 h
- Tmax (clinical [4]; 25 mg): 1.8 ± 0.9 h
- t1/2 λz (clinical [4]; 25 mg): 4.60 h
- tmax (clinical [4]; 25 mg): 1.33 h
- AUC (clinical [4]; 100 mg): 1.93 ± 0.68 µM·h
- AUC(0-τ) (clinical [4]; 100 mg): 309 ng·h/mL
- AUC(0-∞) (clinical [4]; 100 mg): 340 ng·h/mL
- CLr (clinical [4]; 100 mg): 10.26 L/h
- CLtot/F (clinical [4]; 100 mg): 307 932 mL/h
- T ½ (clinical [4]; 100 mg): 18.6 ± 10.1 h
- Tmax (clinical [4]; 100 mg): 3.7 ± 0.8 h
- t1/2 λz (clinical [4]; 100 mg): 8.50 h
- tmax (clinical [4]; 100 mg): 3.67 h
- AUC (clinical [4]; 200 mg): 14.43 ± 13.12 µM·h
- AUC(0-τ) (clinical [4]; 200 mg): 1,665 ng · h/mL
- AUC(0-∞) (clinical [4]; 200 mg): 1,887 ng · h/mL
- CLr (clinical [4]; 200 mg): 4.60 L/h
- CLtot/F (clinical [4]; 200 mg): 169 692 mL/h
- T ½ (clinical [4]; 200 mg): 11.2 ± 7.1 h
- Tmax (clinical [4]; 200 mg): 3.3 ± 3.2 h
- t1/2 λz (clinical [4]; 200 mg): 10.48 h
- tmax (clinical [4]; 200 mg): 3.33 h
Compound: Nc1nc(=O)[nH]cc1F [5FC, 5-fluorocytosine]

Compound: Nc1nc(NC2CC2)c2ncn([C@H]3C=C[C@@H](CO)C3)c2n1 [ABC, (1S,4R)-4-[2-amino-6-cyclopropyl-amino)-9H-purin-9-yl]-2-cyclopentene-1-methanol succinate]
- Viral Load Decline (log) (HIV viral load; 600 mg BD, duration of dosing 7): −1.00 log

Compound: Cc1cn([C@H]2C[C@H](N=[N+]=[N-])[C@@H](CO)O2)c(=O)[nH]c1=O [AZT, 3′-deoxy-3′-azido-thymidine]
- Viral Load Decline (log) (HIV viral load; 300 mg BD, duration of dosing 14): −0.6 log

Compound: Cc1cn([C@H]2C=C[C@@H](CO)O2)c(=O)[nH]c1=O [D4T, 2′,3′-didehydro-2′,3′-dideoxythymidine]
- Intracellular [Nuc-PPP] in patients [1]: 0.05 µM
- EC50 [5]: 50 nM
- EC90 [5]: 350 nM
- Intracellular half life [6]: 3.5 h
- Cmax (clinical [2]): 2.7 µM
- half-life (clinical [2]): 102 min
- Ki (wild type HIV-RT): 50 to 300 nM
- Ki (M184V mutant RT): 3 µM
- IC90 [3]: 6.8 µM

Compound: Nc1nc(N)c2ncn([C@H]3CO[C@@H](CO)O3)c2n1 [DAPD, β-D-dioxolanyl-2,6-diaminopurine]
- Viral Load Decline (log) (HIV viral load; 300 mg BD, duration of dosing 14, add-on study in experienced patients): −1.5 log

Compound: Cc1cn([C@H]2C[C@H](F)[C@@H](CO)O2)c(=O)[nH]c1=O [FLT]
- Viral Load Decline (log) (HIV viral load; 7.5 mg QD, duration of dosing 28, add-on study in experienced patients): −1.88 log
